Results on 2 molecules are retold here after PMC6327487, “A cytosolic NAD^+-dependent GPDH from maize (ZmGPDH1) is involved in conferring salt and osmotic stress tolerance” (BMC Plant Biology, 2019).

Series [1] deals with T1, ZmGPDH1 (Zea mays, UniProt A0A345VNI6).
T1 construct: gene GPDH1; full-length CDS (458 residues, 51 kDa; 1377 bp) in pET32a(+) NcoI/XhoI, 6xHis fusion of about 65 kDa, E. coli Rosetta (DE3), Ni-NTA
T1 sequence (A0A345VNI6 1-458): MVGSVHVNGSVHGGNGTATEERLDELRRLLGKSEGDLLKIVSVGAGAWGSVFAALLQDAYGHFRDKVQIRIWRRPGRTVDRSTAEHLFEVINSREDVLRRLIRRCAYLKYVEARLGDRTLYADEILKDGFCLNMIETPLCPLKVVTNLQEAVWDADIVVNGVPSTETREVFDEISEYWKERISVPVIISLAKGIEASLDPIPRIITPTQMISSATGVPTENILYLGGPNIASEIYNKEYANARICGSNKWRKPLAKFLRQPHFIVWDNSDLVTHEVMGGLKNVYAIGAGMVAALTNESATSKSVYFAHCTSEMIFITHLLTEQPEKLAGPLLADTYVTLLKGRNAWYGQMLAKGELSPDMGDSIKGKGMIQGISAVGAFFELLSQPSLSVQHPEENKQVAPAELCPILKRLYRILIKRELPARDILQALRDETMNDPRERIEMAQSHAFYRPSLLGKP
The experiment in a line: GPDH activity with and without NADH. The settings on record: 4 mM DHAP, 0.2 mM NADH, 100 mM HEPES pH 6.9 (general assay). It counts as biochemical.

Substrate in series [2]: O=C(CO)COP(=O)(O)O
Briefly: purified protein. In kind it is biochemical, Zea mays. The settings on record: DHAP reduction, 0.2 mM NADH, 100 mM HEPES pH 6.9 (general assay).

Regarding `NC(=O)C1=CN([C@@H]2O[C@H](COP(=O)(O)OP(=O)(O)OC[C@H]3O[C@@H](n4cnc5c(N)ncnc54)[C@H](O)[C@@H]3O)[C@@H](O)[C@H]2O)C=CC1` [NADH], the “GPDH activity with and without NADH” value in series [1] was “addition of NADH strongly stimulated the enzyme activity”.

B1: ZmGPDH1 (Zea mays subsp. mays) (protein)
chain: T1 sequence (A0A345VNI6 1-458)
notes: full-length CDS (458 residues, 51 kDa; 1377 bp) in pET32a(+) NcoI/XhoI, 6xHis fusion of about 65 kDa, E. coli Rosetta (DE3), Ni-NTA
The Km is the substrate concentration at which the rate is half of its maximum. As for B1, in series [2], the Michaelis-Menten constant (Km) is 2.75 mM.
